The values that follow come from ChEMBL document CHEMBL1201862, “PubChem BioAssay data set” (2004).

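48-hour exposure; five concentrations; linearly interpolated endpoints. The concentration for 50% growth inhibition is given as GI50.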 Active and inactive are the calls of the source. Cut-off read from the data, not from the text of the source: active = GI50 up to about 1.1 µM and inactive = higher.

What all share (assay): NCI tumour cell line growth inhibition, 48 h
For test [1], the system named is SF-539.
Test [2] deals with SN12C.
Test [3] concerns SK-MEL-2.
In test [4] the test system is SK-OV-3.
Test [5] has as its system UACC-62.
Test [6] deals with PC-3.
Test [7] concerns BT-549.
The subject of test [8] is SNB-75.
In test [9] the test system is 786-0.
The subject of test [10] is RXF 393.
Test [11] deals with ACHN.
Test [12] deals with NCI-H522.
Test [13] relates to Hs-578T.
In test [14] the test system is MDA-MB-435.
The subject of test [15] is LOX IMVI.

Regarding `COc1ccc2nc3n(c2c1)C(=O)c1ccccc1-3`, the GI50 is > 100 µM (inactive) in test [1]; > 100 µM (inactive) in [2]; > 100 µM (inactive) in test [3]; 15.1 µM (inactive) in test [4]; > 100 µM (inactive) in test [5]; > 100 µM (inactive) in [6]. The GI50 in test [7] was > 10 µM (inactive); in test [8], > 100 µM (inactive); in test [9] it was > 100 µM (inactive); in [10], > 100 µM (inactive); in [11], > 100 µM (inactive); in test [12], > 100 µM (inactive).
Take `CCCS(=O)(=O)O`: the GI50 in test [13], in test [1], in test [3], in test [4], in test [5] and in [6] was > 100 µM (inactive) throughout. In addition, the GI50 in test [7], in [14], in test [8], in [10], in test [11] and in test [12] was > 100 µM (inactive) each time. For the same compound, the GI50 in test [15] is > 100 µM (inactive).
Turning to `COc1ccccc1C(=O)NCC1CCCN2CCCCC12` (stereo unspecified), the GI50 in test [13], in [1], in [2], in test [3], in test [4] and in test [5] was > 100 µM (inactive) each time. Moreover, the GI50 in test [6], in [7], in test [14], in [8], in test [9] and in test [10] was > 100 µM (inactive) throughout. In addition, the GI50 in test [11], in test [12] and in test [15] was > 100 µM (inactive) throughout.
Take `COc1ccc(C(CC(=O)c2ccc(O)cc2)C(C(=O)c2ccc(O)cc2)C(c2ccc(OC)cc2)C2C(=O)NC(=S)NC2=O)cc1` (stereo unspecified): the GI50 is 26.7 µM (inactive) in test [13]; 24.7 µM (inactive) in test [2]; 29.8 µM (inactive) in test [3]; 17.7 µM (inactive) in test [5]; 21.8 µM (inactive) in test [6]; 18.5 µM (inactive) in test [7]. Besides, the GI50 in [14] was 25.5 µM (inactive); in [8], 25.8 µM (inactive); in test [9], 20.6 µM (inactive); in test [11] it was 19.7 µM (inactive); in test [12], 14.9 µM (inactive); in test [15], 17.9 µM (inactive).
Take `Cc1nnc(Nc2ccc(Cl)cc2)o1`: the GI50 in test [13], in [1], in test [2], in [3], in [4] and in [5] was > 10 µM (inactive) each time. For the same compound, the GI50 in test [6], in test [14], in test [8], in test [9], in [10] and in test [11] was > 10 µM (inactive) throughout. In addition, the GI50 in [12] and in test [15] was > 10 µM (inactive) in each case.
With `COC1OC(CS(=O)(=O)O)C(O)C(O)C1O` (stereo unspecified), the GI50 in test [13], in test [2], in [3], in test [4], in test [5] and in test [6] was > 100 µM (inactive) each time. The GI50 in test [7], in test [14], in [8], in test [10] and in test [15] was > 100 µM (inactive) each time.
Regarding `C/C(=C1\N=C(c2ccccc2)OC1=O)c1ccccc1`, the GI50 in test [13], in test [1], in test [3], in test [4], in test [5] and in test [6] was > 100 µM (inactive) throughout. For the same compound, the GI50 in [7] is 0.61 µM (active); in test [14], > 100 µM (inactive); in [8], 0.611 µM (active); in [11] it was > 100 µM (inactive); in [12], > 100 µM (inactive); in test [15] it was > 100 µM (inactive).
`CC1C(=O)N(c2ccccc2)NC12CCCc1ccccc12` (stereo unspecified): the GI50 in [13], in [1], in test [2], in [3], in test [4] and in [5] was > 100 µM (inactive) in each case. In addition, the GI50 in [6], in test [7], in test [14], in [8], in test [10] and in [11] was > 100 µM (inactive) in each case. In addition, the GI50 in test [12] and in test [15] was > 100 µM (inactive) in each case.
With `C=CC(=O)NC(O)(C(=O)OCC)C(F)(F)F` (stereo unspecified), the GI50 in test [13], in [1], in [2], in test [3], in test [4] and in test [5] was > 100 µM (inactive) each time. Besides, the GI50 in [6], in test [7], in [14], in [8], in test [10] and in test [11] was > 100 µM (inactive) each time. In addition, the GI50 in [12] and in test [15] was > 100 µM (inactive) in each case.
Consider `O=C1CC(CC(OCc2ccccc2)C(COCc2ccccc2)OCc2ccccc2)CC(=O)N1` (stereo unspecified), for which the GI50 in [13] was 44.2 µM (inactive); in test [1] it was 60.3 µM (inactive); in test [2], 44.6 µM (inactive); in test [6], 24.7 µM (inactive); in [7], 13 µM (inactive); in [14], 29.6 µM (inactive). Besides, the GI50 in test [8] was 52.7 µM (inactive); in test [9], 32.4 µM (inactive); in test [10] it was 30.1 µM (inactive); in [11] it was 30.3 µM (inactive); in test [12] it was 23.7 µM (inactive); in test [15] it was 34.3 µM (inactive).
In the case of `Cc1[nH]c2ncn(/N=C/c3ccccc3O)c(=N)c2c1Cc1ccccc1`, the GI50 in test [13] is 96.2 µM (inactive); in [1], 30 µM (inactive); in test [2], 67 µM (inactive); in [3], 23.3 µM (inactive); in [4], > 100 µM (inactive); in [5], 37.2 µM (inactive). For the same compound, the GI50 is 17.6 µM (inactive) in test [6]; 37.2 µM (inactive) in [7]; 18.5 µM (inactive) in test [14]; 91 µM (inactive) in [8]; 81.8 µM (inactive) in test [9]; > 100 µM (inactive) in test [10]. The values for the GI50 in [11] and in [15] were 54.2 µM (inactive) and 59.2 µM (inactive), respectively.
In the case of `CC(SC(=S)N1CCOCC1)C(=O)Nc1nnc(-c2ccc(Cl)cc2)o1` (stereo unspecified), the GI50 was > 100 µM (inactive) in test [13]; 74.5 µM (inactive) in test [1]; 36.1 µM (inactive) in [2]; 31.8 µM (inactive) in test [3]; 67.3 µM (inactive) in test [4]; 50.6 µM (inactive) in [5]. Moreover, the GI50 in test [6] is 38.5 µM (inactive); in [7] it was > 100 µM (inactive); in [14], 40.2 µM (inactive); in test [8], > 100 µM (inactive); in [9], 27.9 µM (inactive); in test [10], > 100 µM (inactive). Moreover, the GI50 in test [11] is 51.2 µM (inactive); in test [15], 28.8 µM (inactive).
In the case of `Nc1cc2c(nc3c4ccccc4c(N)cc3[n+]2-c2cccc3ccccc23)c2ccccc12.Nc1cc2c(nc3c4ccccc4ccc3[n+]2-c2cccc3ccccc23)c2ccccc12`, the GI50 in test [13] was 1.17 µM (inactive); in test [1], 7.74 µM (inactive); in test [2], 2.49 µM (inactive); in [3] it was 1.57 µM (inactive); in test [4], 4.32 µM (inactive); in test [5], 7.89 µM (inactive). Further, the GI50 was 0.465 µM (active) in test [6]; 4.11 µM (inactive) in test [7]; 1.45 µM (inactive) in test [14]; 1.68 µM (inactive) in [8]; 1.21 µM (inactive) in [9]; 2.45 µM (inactive) in test [10]. In addition, the values for the GI50 in test [11], in test [12] and in test [15] were 2.18 µM (inactive), 1.25 µM (inactive) and 1.97 µM (inactive), respectively.
Consider `COc1cc([C@@H]2c3cc4c(cc3[C@@H](c3c(O)cc(O)c5c3O[C@H](c3ccc(O)c(O)c3)[C@@H](O)C5)[C@H]3COC(=O)[C@H]23)OCO4)cc(OC)c1O`, for which the GI50 in [13] was > 100 µM (inactive); in [1] it was 58.7 µM (inactive); in test [2], > 100 µM (inactive); in test [3] it was > 100 µM (inactive); in test [4] it was > 100 µM (inactive); in test [5], > 100 µM (inactive). Moreover, the GI50 in test [6], in [7], in test [14], in test [9], in test [10] and in test [11] was > 100 µM (inactive) each time. Moreover, the GI50 in [12] was 43.6 µM (inactive); in test [15], > 100 µM (inactive).
